Experimental data published in ChEMBL document CHEMBL4184167, “Fluoroethoxy-1,4-diphenethylpiperidine and piperazine derivatives: Potent and selective inhibitors of [3H]dopamine uptake at the vesicular monoamine transporter-2” (Bioorg Med Chem Lett, 2017).
pIC50, pKi: −log10 of the molar value.

What was measured:
[1] = biological target: Synaptic vesicular amine transporter (Rattus norvegicus, UniProt Q01827); experiment: Inhibition of [3H]dopamine uptake at VMAT2 in rat striatal synaptic vesicles by scintillation spectrometry
Synaptic vesicular amine transporter, sequence (Q01827 whole entry): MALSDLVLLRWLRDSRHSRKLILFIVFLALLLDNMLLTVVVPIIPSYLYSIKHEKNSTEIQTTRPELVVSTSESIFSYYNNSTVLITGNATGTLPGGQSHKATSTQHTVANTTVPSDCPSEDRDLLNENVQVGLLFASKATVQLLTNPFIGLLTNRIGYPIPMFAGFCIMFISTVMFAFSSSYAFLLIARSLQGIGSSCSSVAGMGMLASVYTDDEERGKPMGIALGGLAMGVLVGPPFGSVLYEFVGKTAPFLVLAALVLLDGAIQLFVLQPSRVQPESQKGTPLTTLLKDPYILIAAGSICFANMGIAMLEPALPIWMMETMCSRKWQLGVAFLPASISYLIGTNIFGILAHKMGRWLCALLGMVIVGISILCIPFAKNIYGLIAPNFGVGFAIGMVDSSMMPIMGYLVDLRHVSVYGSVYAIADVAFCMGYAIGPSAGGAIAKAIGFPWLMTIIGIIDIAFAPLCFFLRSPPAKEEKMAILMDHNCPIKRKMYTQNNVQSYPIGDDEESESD

[2] = biological target: Sodium-dependent serotonin transporter (Rattus norvegicus, UniProt P31652); experiment: Inhibition of [3H]serotonin uptake at SERT in rat striatal synaptosomes preincubated for 5 mins followed by radioligand addition measured after 10 mins by scintillation spectrometry; assay type: subcellular, Striatum
Sodium-dependent serotonin transporter, sequence (P31652 whole entry): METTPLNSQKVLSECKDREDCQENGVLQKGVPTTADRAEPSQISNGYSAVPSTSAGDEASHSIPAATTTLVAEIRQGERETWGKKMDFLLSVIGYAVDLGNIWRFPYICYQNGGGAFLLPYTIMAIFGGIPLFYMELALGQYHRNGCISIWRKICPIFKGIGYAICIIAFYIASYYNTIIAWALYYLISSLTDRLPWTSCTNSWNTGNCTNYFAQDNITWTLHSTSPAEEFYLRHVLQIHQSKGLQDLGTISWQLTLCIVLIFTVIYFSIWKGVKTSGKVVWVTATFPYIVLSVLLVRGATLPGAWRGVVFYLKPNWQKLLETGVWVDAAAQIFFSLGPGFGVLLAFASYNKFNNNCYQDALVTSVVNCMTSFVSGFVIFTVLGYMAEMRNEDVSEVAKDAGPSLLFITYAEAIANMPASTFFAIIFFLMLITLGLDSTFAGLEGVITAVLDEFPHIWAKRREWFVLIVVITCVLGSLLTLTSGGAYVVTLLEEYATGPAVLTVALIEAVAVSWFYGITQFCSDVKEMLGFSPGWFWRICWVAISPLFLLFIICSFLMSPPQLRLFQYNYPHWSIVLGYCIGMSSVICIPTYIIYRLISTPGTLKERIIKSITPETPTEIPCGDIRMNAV

[3] = biological target: Voltage-gated inwardly rectifying potassium channel KCNH2 (Homo sapiens, UniProt Q12809); experiment: Displacement of [3H]Dofetilide from human ERG expressed in HEK293 cells after 60 mins by scintillation spectrometry
Voltage-gated inwardly rectifying potassium channel KCNH2, sequence (Q12809 whole entry): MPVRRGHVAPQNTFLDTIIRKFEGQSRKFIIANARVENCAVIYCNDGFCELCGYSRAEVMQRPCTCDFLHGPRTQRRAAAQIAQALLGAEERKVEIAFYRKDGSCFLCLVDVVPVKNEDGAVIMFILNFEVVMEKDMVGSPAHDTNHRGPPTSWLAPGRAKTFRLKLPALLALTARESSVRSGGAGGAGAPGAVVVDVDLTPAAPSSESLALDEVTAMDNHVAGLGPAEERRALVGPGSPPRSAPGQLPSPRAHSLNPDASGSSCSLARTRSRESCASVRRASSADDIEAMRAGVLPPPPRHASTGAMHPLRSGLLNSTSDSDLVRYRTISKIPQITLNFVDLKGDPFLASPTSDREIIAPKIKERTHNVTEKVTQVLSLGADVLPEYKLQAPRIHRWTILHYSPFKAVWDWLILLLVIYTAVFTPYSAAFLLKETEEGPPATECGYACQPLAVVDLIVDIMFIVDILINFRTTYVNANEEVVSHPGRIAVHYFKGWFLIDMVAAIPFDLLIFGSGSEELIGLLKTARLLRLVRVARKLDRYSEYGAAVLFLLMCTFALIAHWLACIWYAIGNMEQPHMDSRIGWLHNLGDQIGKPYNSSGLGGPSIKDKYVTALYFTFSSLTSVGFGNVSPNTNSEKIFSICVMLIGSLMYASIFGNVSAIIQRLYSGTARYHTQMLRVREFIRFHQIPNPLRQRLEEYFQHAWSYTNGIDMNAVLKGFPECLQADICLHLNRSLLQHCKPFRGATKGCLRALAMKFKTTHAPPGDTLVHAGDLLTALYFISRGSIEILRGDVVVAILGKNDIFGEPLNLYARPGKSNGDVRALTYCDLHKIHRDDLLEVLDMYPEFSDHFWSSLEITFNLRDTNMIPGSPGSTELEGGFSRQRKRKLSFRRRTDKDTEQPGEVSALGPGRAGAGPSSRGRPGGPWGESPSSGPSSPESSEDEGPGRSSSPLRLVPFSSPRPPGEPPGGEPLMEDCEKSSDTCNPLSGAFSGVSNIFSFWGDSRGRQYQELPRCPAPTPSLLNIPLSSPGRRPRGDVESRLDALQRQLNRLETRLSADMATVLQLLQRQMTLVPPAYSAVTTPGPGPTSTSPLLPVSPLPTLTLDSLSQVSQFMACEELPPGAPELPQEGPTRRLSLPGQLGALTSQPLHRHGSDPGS

[4] = Half life in Sprague-Dawley rat plasma; assay type: ADME, cell-free
[5] = biological target: Sodium-dependent dopamine transporter (Rattus norvegicus, UniProt P23977); experiment: Inhibition of [3H]dopamine uptake at dopamine transporter in rat striatal synaptosomes preincubated for 5 mins followed by radioligand addition measured after 10 mins by scintillation spectrometry; assay type: subcellular, Striatum
Sodium-dependent dopamine transporter, sequence (P23977 whole entry): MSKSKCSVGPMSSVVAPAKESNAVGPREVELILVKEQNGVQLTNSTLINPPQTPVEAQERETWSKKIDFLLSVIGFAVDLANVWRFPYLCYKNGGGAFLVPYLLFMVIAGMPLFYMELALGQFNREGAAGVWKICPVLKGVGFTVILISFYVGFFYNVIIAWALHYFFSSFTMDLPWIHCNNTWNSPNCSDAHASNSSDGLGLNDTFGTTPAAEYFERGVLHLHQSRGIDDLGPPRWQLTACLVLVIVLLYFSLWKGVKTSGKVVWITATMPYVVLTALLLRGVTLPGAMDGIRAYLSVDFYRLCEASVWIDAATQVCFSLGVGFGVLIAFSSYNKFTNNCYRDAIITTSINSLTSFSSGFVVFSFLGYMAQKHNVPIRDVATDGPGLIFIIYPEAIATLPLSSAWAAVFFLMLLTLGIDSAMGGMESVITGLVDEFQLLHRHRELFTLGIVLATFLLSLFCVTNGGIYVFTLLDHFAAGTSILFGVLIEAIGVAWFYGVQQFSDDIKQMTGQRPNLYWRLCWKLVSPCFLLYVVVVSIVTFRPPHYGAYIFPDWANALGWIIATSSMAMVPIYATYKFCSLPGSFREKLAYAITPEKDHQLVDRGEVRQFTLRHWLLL

| SMILES | pKi [1] | pKi [2] | pIC50 [3] | half-life [4] | pKi [5] |
| --- | --- | --- | --- | --- | --- |
| COc1ccc(CCN2CCC(CCc3cccc(OCCF)c3)CC2)cc1 | 7.17 | 6.18 | 6.55 |  |  |
| FCCOc1cccc(CCN2CCN(CCc3ccccc3)CC2)c1 | 7.14 |  |  |  |  |
| FCCOc1ccccc1CCN1CCN(CCc2ccccc2Cl)CC1 | 7.85 | 7.14 | 6.07 |  |  |
| CN1[C@@H](CC(=O)c2ccccc2)CCC[C@H]1C[C@H](O)c1ccccc1 [LOBELINE] |  |  |  | 50 min |  |
| FCCOc1cccc(CCN2CCC(CCc3ccccc3)CC2)c1 | 7.62 |  |  |  |  |
| FCCOc1ccc(CCC2CCN(CCc3ccccc3Cl)CC2)cc1 | 6.72 | 5.44 |  |  |  |
| FCCOc1cccc(CCC2CCN(CCc3ccccc3)CC2)c1 | 7.28 |  |  |  | 5.50 |
| COc1ccccc1CCN1CCC(CCc2ccccc2OCCF)CC1 | 7.60 |  |  |  |  |
| COc1ccccc1CCN1CCC(CCc2cccc(OCCF)c2)CC1 | 7.21 | 6.33 | 6.10 |  |  |
| FCCOc1ccccc1CCC1CCN(CCc2ccc(F)cc2)CC1 | 7.57 |  |  |  |  |
| FCCOc1ccc(CCN2CCN(CCc3ccccc3Cl)CC2)cc1 | 6.35 | 6.32 | 5.85 |  |  |
| FCCOc1ccc(CCN2CCC(CCc3ccccc3)CC2)cc1 | 6.82 | 6.41 | 6.46 |  | 5.97 |
| COc1ccc(CCN2CCC(CCc3ccccc3OCCF)CC2)cc1 | 7.14 |  | 6.46 |  |  |
| FCCOc1ccccc1CCC1CCN(CCc2ccccc2)CC1 | 7.46 |  |  |  |  |
| FCCOc1ccccc1CCN1CCN(CCc2ccc(F)cc2)CC1 | 7.62 | 6.52 |  |  |  |
| FCCOc1ccc(CCN2CCN(CCc3ccccc3)CC2)cc1 | 6.22 | 5.47 | 5.52 |  | 5.56 |
